Experimental data reported in patent US10034886B2, “GLP-1 receptor modulators” (Celgene International II SÀRL, priority 2014, dated 2018).

Each molecule was assayed against T1, GLP-1R (Homo sapiens, UniProt P43220) (assay: EC20 GLP-1(9-36) PAM cAMP assay: dose response of compound in the presence of fixed concentration of GLP-1(9-36)). Details: GLP-1R CRE-bla CHO-K1 cells, compound dose response with fixed concentration of GLP-1(9-36), read-out: EC20 GLP-1(9-36) PAM EC50.
T1 construct: host or cells: GLP-1R CRE-bla CHO-K1 cells
T1 sequence (P43220 24-463): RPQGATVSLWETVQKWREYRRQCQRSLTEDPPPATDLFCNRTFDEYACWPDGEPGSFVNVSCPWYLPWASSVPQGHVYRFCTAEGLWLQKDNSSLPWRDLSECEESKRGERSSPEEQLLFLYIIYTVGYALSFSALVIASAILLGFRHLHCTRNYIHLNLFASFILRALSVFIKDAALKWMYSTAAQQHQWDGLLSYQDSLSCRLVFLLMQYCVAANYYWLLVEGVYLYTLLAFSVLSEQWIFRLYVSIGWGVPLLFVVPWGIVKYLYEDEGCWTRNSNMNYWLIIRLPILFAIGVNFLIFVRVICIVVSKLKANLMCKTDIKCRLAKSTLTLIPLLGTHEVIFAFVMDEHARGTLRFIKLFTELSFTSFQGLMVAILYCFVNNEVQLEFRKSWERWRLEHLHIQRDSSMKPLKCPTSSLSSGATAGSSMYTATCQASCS
T1 sequence (P01275 100-127 partner limits assumed): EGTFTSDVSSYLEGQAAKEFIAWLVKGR
Type: cell-based
In short: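 GLP-1R CRE-bla CHO-K1 cells treated 30 min at 37 °C with 12-point compound dose response plus fixed EC20 GLP-1(9-36), with IBMX, in HBSS/HEPES/0.1% BSA pH 7.4. Total cAMP measured by luminescent detection against standard curve; EC50 and Emax from non-linear regression.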
An EC50 of 800 to 2500 nM was found for `CCCc1ccc(-c2ccc(-c3cnc(-c4ccc(C[C@H](NC(=O)c5ccc(C(C)(C)C)s5)C(=O)O)cc4)nc3)cc2)cc1` [Compound 1393] in this work. An EC50 of 800 to 2500 nM was found for `CC(C)CCCOc1ccc(-c2cnc(-c3ccc(C[C@H](NC(=O)c4ccc(OC(C)C)cc4)C(=O)N4CC(C(=O)O)C4)cc3)nc2)cc1` [Compound 1238] in this work. An EC50 of under 800 nM was found for `CCC[C@H]1CC[C@H](C2CCN(c3cnc(-c4ccc(C[C@H](NC(=O)c5ccc(C(C)(C)C)s5)C(=O)O)cc4)nc3)CC2)CC1` [Compound 1439, (S)-2-(5-(tert-butyl)thiophene-2-carboxamido)-3-(4-(5-(4-((1s,4r)-4-propylcyclohexyl)piperidin-1-yl)pyrimidin-2-yl)phenyl)propanoic acid] in this work. An EC50 of 5000 to 10000 nM was found for `CC[C@H]1CC[C@H](c2ccc(-c3cnc(-c4ccc(C[C@@H](NC(=O)c5ccc(C(C)(C)C)s5)C(=O)N[C@H](C)C(=O)O)cc4)nc3)cc2)CC1` [Compound 1269] in this work. An EC50 of 2500 to 5000 nM was found for `COc1cccc(/C=C/c2cnc(-c3ccc(C[C@H](NC(=O)c4ccc(C(C)(C)C)s4)C(=O)N[C@H](C)C(=O)O)cc3)nc2)c1` [Compound 1263] in this work. An EC50 of 800 to 2500 nM was found for `CCCOc1ccc(C2CCN(c3cnc(-c4ccc(C[C@H](NC(=O)c5ccc(C(C)(C)C)s5)C(=O)N5CC(C(=O)O)C5)cc4)nc3)CC2)cc1` [Compound 1494] in this work. An EC50 of under 800 nM was found for `CC(C)(C)c1ccc(C(=O)N[C@@H](Cc2ccc(-c3ncc(-c4ccc(-c5ccc(C(F)(F)F)cc5)cc4)cn3)cc2)C(=O)O)s1` [Compound 1355, (S)-2-(5-(tert-butyl)thiophene-2-carboxamido)-3-(4-(5-(4′-(trifluoromethyl)-[1,1′-biphenyl]-4-yl)pyrimidin-2-yl)phenyl)propanoic acid] in this work. An EC50 of under 800 nM was found for `C[C@@H](NC(=O)[C@H](Cc1ccc(-c2ncc(-c3ccc(-c4ccc(F)cc4)cc3)cn2)cc1)NC(=O)c1ccc(C(C)(C)C)s1)C(=O)O` [Compound 1305] in this work. An EC50 of under 800 nM was found for `CC(C)(C)c1ccc(C(=O)N[C@@H](Cc2ccc(-c3ncc(-c4ccc(-c5ccc(C6CCCC6)cc5)cc4F)cn3)cc2)C(=O)N2CC(C(=O)O)C2)s1` [Compound 1211] in this work. An EC50 of under 800 nM was found for `CCC[C@H]1CC[C@H](C2CCN(c3cnc(-c4ccc(C[C@H](NC(=O)c5ccc(C(C)(C)C)s5)C(=O)N5CC(c6nn[nH]n6)C5)cc4)nc3)CC2)CC1` [Compound 1442] in this work. An EC50 of under 800 nM was found for `CCCc1ccc(-c2ccc(-c3cnc(-c4ccc(C[C@H](NC(=O)c5ccc(CC(C)C)s5)C(=O)N5CC(C(=O)O)C5)cc4)nc3)c(F)c2)cc1` [Compound 1405] in this work.

Same assay, conditions: dose response of compound in presence of fixed concentration of GLP-1(9-36), GLP-1R CRE-bla CHO-K1 cells, read-out: EC20 GLP-1(9-36) PAM EC50
An EC50 of 2500 to 5000 nM was found for `CC(C)COc1ncc(-c2cnc(-c3ccc(C[C@H](NC(=O)c4ccc(C(C)(C)C)s4)C(=O)N[C@H](C)C(=O)O)cc3)nc2)cc1Cl` [Compound 1038] in this work. An EC50 of 800 to 2500 nM was found for `CCCCCCCOc1ccc(-c2cnc(-c3ccc(C[C@H](NC(=O)c4ccc(C(C)(C)C)s4)C(=O)N[C@@H](CC(=O)NCC(N)=O)C(=O)O)cc3)nc2)cc1` [Compound 518] in this work. An EC50 of under 800 nM was found for `CCCCCCCOc1ccc(-c2cnc(-c3ccc(C[C@H](NC(=O)c4ccc(C(C)(C)C)cc4)C(=O)N[C@@H](CC(=O)NCCO)C(=O)O)cc3)nc2)cc1` [Compound 508] in this work. An EC50 of 800 to 2500 nM was found for `CCCCCCCOc1ccc(-c2cnc(-c3ccc(C[C@H](NC(=O)c4ccc(C(C)C)cc4)C(=O)N4CC(C(=O)O)C4)cc3)nc2)cc1` [Compound 1113] in this work. An EC50 of under 800 nM was found for `CCCCCCCOc1ccc(-c2cnc(-c3ccc(C[C@H](NC(=O)c4ccc(C(C)(C)C)cc4)C(=O)N[C@@H](CC(=O)NCC(N)=O)C(=O)O)cc3)nc2)cc1` [Compound 482] in this work. An EC50 of under 800 nM was found for `C[C@@H](NC(=O)[C@H](Cc1ccc(-c2ncc(-c3ccc(OCC(C)(C)C)cc3)cn2)cc1)NC(=O)c1ccc(C(C)(C)C)s1)C(=O)O` [Compound 739] in this work. An EC50 of under 800 nM was found for `CCCCCCCOc1ccc(-c2cnc(-c3ccc(C[C@H](NC(=O)c4ccc(C(C)(C)C)cc4)C(=O)NC(C(=O)O)C4CCOCC4)cc3)nc2)cc1` (some centres unmarked) [Compound 540] in this work. An EC50 of 5000 to 10000 nM was found for `CC(C)c1cccc(-c2cnc(-c3ccc(C[C@H](NC(=O)c4ccc(C(C)(C)C)s4)C(=O)N[C@H](C)C(=O)O)cc3)nc2)c1` [Compound 1033] in this work. An EC50 of 800 to 2500 nM was found for `CCCOc1ccc(-c2cnc(-c3ccc(C[C@H](NC(=O)c4ccc(C(C)(C)C)s4)C(=O)N[C@H](C)C(=O)O)cc3)nc2)cc1` [Compound 732] in this work. An EC50 of under 800 nM was found for `CCCCCCCOc1ccc(-c2cnc(-c3ccc(C[C@H](NC(=O)c4ccc(C(C)(C)C)cc4)C(=O)N[C@H](C)C(=O)O)cc3)nc2)cc1` [Compound 398, (R)-2-((S)-2-(4-(tert-butyl)benzamido)-3-(4-(5-(4-(heptyloxy)phenyl)pyrimidin-2-yl)phenyl)propanamido)propanoic acid] in this work. An EC50 of under 800 nM was found for `CC1CCC(c2ccc(-c3cnc(-c4ccc(C[C@H](NC(=O)c5ccc(C(C)(C)C)s5)C(=O)N5CC(C(=O)O)C5)cc4)nc3)cc2)CC1` (some centres unmarked) [Compound 1187] in this work. An EC50 of 2500 to 5000 nM was found for `CCOc1cc(OC(F)(F)F)cc(-c2cnc(-c3ccc(C[C@H](NC(=O)c4ccc(C(C)(C)C)s4)C(=O)N[C@H](C)C(=O)O)cc3)nc2)c1F` [Compound 1045] in this work. An EC50 of 2500 to 5000 nM was found for `CCC(CC)Oc1ccc(-c2cnc(-c3ccc(C[C@H](NC(=O)c4ccc(C(C)(C)C)cc4)C(=O)NCCC(=O)O)cc3)nc2)cc1` [Compound 696] in this work. An EC50 of 800 to 2500 nM was found for `CCCCCCCOc1ccc(-c2cnc(-c3ccc(C[C@H](NC(=O)c4ccc(C(C)(C)C)s4)C(=O)N[C@@H](C(=O)O)C(C)C)cc3)nc2)cc1` [Compound 889] in this work. An EC50 of under 800 nM was found for `CC[C@H]1CC[C@H](c2ccc(-c3cnc(-c4ccc(C[C@H](NC(=O)c5ccc(C6(C)CC6)cc5)C(=O)N5CC(C(=O)O)C5)cc4)nc3)cc2)CC1` [Compound 1159] in this work. An EC50 of under 800 nM was found for `CCCCCCCOc1ccc(-c2cnc(-c3ccc(C[C@H](NC(=O)c4ccc(C(C)(C)C)cc4)C(=O)NC(C(=O)O)c4ccco4)cc3)nc2)cc1` (some centres unmarked) [Compound 440] in this work. An EC50 of 2500 to 5000 nM was found for `CCCCCCCOc1ccc(-c2cnc(-c3ccc(C[C@H](NC(=O)c4ccc(CCCC)cc4)C(=O)N[C@H](C)C(=O)O)cc3)nc2)cc1` [Compound 819] in this work. An EC50 of 800 to 2500 nM was found for `CCCCCCCOc1ccc(-c2cnc(-c3ccc(C[C@H](NC(=O)c4ccc(C(C)(C)C)s4)C(=O)NC(C(=O)O)C(O)C4CC4)cc3)nc2)cc1` (some centres unmarked) [Compound 908] in this work. An EC50 of 800 to 2500 nM was found for `CCCCCCCOc1ccc(-c2cnc(-c3ccc(C[C@H](NC(=O)c4ccc(C(C)(C)C)nc4)C(=O)N4CCC[C@H]4C(=O)O)cc3)nc2)cc1` [Compound 1077] in this work. An EC50 of 800 to 2500 nM was found for `CCCCCCCOc1ccc(-c2cnc(-c3ccc(CC(NC(=O)c4ccc(C(C)(C)C)s4)C(=O)N[C@@H](CSSC[C@H](N)C(=O)O)C(=O)O)cc3)nc2)cc1` (some centres unmarked) [Compound 426] in this work. An EC50 of under 800 nM was found for `CCCCCCCOc1ccc(-c2cnc(-c3ccc(C[C@H](NC(=O)c4ccc(C(C)(C)C)s4)C(=O)NC(C(=O)O)c4c(C)n[nH]c4C)cc3)nc2)cc1` (some centres unmarked) [Compound 598] in this work. An EC50 of under 800 nM was found for `CCCCCCCOc1ccc(-c2cnc(-c3ccc(C[C@H](NC(=O)c4ccc(C(C)(C)C)s4)C(=O)N[C@@H](CC(=O)O)C(=O)NCCOC)cc3)nc2)cc1` [Compound 532] in this work. An EC50 of 800 to 2500 nM was found for `CCCCCCCOc1ccc(-c2cnc(-c3ccc(C[C@H](NC(=O)c4ccc(C(C)(C)C)s4)C(=O)N[C@@H](C(=O)O)[C@H](O)c4ccccc4)cc3)nc2)cc1` [Compound 666, (2R,3R)-2-((S)-2-(5-(tert-butyl)thiophene-2-carboxamido)-3-(4-(5-(4-(heptyloxy)phenyl)-pyrimidin-2-yl)phenyl)propanamido)-3-hydroxy-3-phenylpropanoic acid] in this work. An EC50 of 800 to 2500 nM was found for `CCCCCCCOc1ccc(-c2cnc(-c3ccc(C[C@H](NC(=O)c4ccc(C(C)(C)C)cc4)C(=O)N4C[C@H](OC(C)(C)C)C[C@H]4C(=O)O)cc3)nc2)cc1` [Compound 623] in this work. An EC50 of 2500 to 5000 nM was found for `CC(C)(C)c1ccc(C(=O)N[C@@H](Cc2ccc(-c3ncc(-c4ccc(OC5CC5)cc4)cn3)cc2)C(=O)N2CC(C(=O)O)C2)s1` [Compound 780] in this work. An EC50 of 2500 to 5000 nM was found for `CCCCCCOc1ccc(-c2cnc(-c3ccc(C[C@H](NC(=O)c4ccc(C(C)(C)C)cc4)C(=O)NCCC(=O)O)cc3)nc2)cc1` [Compound 711] in this work. An EC50 of 2500 to 5000 nM was found for `CCCCCCCOc1ccc(-c2cnc(-c3ccc(C[C@H](NC(=O)c4ccc(CCCC)cc4)C(=O)N[C@H](C)C(=O)O)cc3)nc2)cc1` [Compound 820] in this work. An EC50 of 5000 to 10000 nM was found for `CCCCCCCOc1ccc(-c2cnc(-c3ccc(C[C@H](NC(=O)c4ccc(C(C)(C)C)s4)C(=O)N4CC(C(N)=O)C4)cc3)nc2)cc1` [Compound 972] in this work. An EC50 of under 800 nM was found for `CCCCCCCOc1ccc(-c2cnc(-c3ccc(C[C@@H](NC(=O)c4ccc(C(C)(C)C)cc4)C(=O)N[C@@H](C)C(=O)O)cc3)nc2)cc1` [Compound 436] in this work. An EC50 of 800 to 2500 nM was found for `CCCCCCCOc1ccc(-c2cnc(-c3ccc(C[C@H](NC(=O)c4ccc(CC(C)C)s4)C(=O)N[C@H](C)C(=O)O)cc3)nc2)cc1` [Compound 813] in this work. An EC50 of under 800 nM was found for `CCCCCCCOc1ccc(-c2cnc(-c3ccc(C[C@H](NC(=O)c4ccc(C(C)(C)C)cc4)C(=O)N[C@H](CC(=O)NC)C(=O)O)cc3)nc2)cc1` [Compound 591] in this work. An EC50 of 5000 to 10000 nM was found for `CCCCCCCOc1ccc(-c2cnc(-c3ccc(C[C@H](NC(=O)c4ccc(C(C)(C)C)cc4)C(=O)NC(CC(=O)O)c4ccccc4)cc3)nc2)cc1` (some centres unmarked) [Compound 539] in this work. An EC50 of under 800 nM was found for `CCCCCCCOc1ccc(-c2cnc(-c3ccc(C[C@H](NC(=O)c4ccc(C(C)(C)C)s4)C(=O)N[C@@H](CC(=O)NCCO)C(=O)O)cc3)nc2)cc1` [Compound 521] in this work. An EC50 of under 800 nM was found for `Cc1ccc(-c2ccc(-c3cnc(-c4ccc(C[C@H](NC(=O)c5ccc(C(C)(C)C)s5)C(=O)N[C@H](C)C(=O)O)cc4)nc3)cc2)c(F)c1` [Compound 1148] in this work. An EC50 of 2500 to 5000 nM was found for `CCCCCCCOc1ccc(-c2nnc(-c3ccc(C[C@H](NC(=O)c4ccc(C(C)(C)C)cc4)C(=O)N[C@H](C)C(=O)O)cc3)s2)cc1` [Compound 802] in this work. An EC50 of under 800 nM was found for `CC(C)CCCCOc1ccc(-c2cnc(-c3ccc(C[C@H](NC(=O)c4ccc(C(C)(C)C)s4)C(=O)N[C@H](C)C(=O)O)cc3)nc2)cc1` [Compound 770] in this work.
